Laboratory results taken from PubChem BioAssay (NCI).
Values joined by “and” are separate entries in the source; they are usually repeats but may differ in a detail not shown here. Equal entries are not always repeated.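 Dose response: 5 concentrations. Exposure: 48 h. Format: 96-well plates. Endpoint: linear interpolation; highest concentration if not reached. GI50 marks 50% less growth. TGI marks complete inhibition of growth.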

What was measured:
Assay in all cases: DTP human tumour cell line panel, 48 h
A498 renal = tested on: A498 renal
HOP-92 NSCLC = tested on: HOP-92 NSCLC
KM12 colon = tested on: KM12 colon
LOX IMVI melanoma = tested on: LOX IMVI melanoma
SF-268 CNS = tested on: SF-268 CNS
SF-539 CNS = tested on: SF-539 CNS
SK-MEL-2 melanoma = tested on: SK-MEL-2 melanoma
SK-MEL-28 melanoma = tested on: SK-MEL-28 melanoma
SNB-19 CNS = tested on: SNB-19 CNS
SR leukemia = tested on: SR leukemia

## O=C1C(=O)c2c(nc3ccc(C(F)(F)F)cn23)-c2ccccc21
A498 renal
  GI50: 1.82 µM
  TGI: 3.25 µM
HOP-92 NSCLC
  GI50: 0.265 µM
  TGI: 0.773 µM
KM12 colon
  GI50: 0.288 µM
  TGI: 0.995 µM
LOX IMVI melanoma
  GI50: 0.173 µM
  TGI: 0.354 µM
SF-268 CNS
  GI50: 0.224 µM
  TGI: 0.609 µM
SF-539 CNS
  GI50: 0.169 µM
  TGI: 0.313 µM
SK-MEL-2 melanoma
  GI50: 0.209 µM
  TGI: 0.434 µM
SK-MEL-28 melanoma
  GI50: 0.221 µM
  TGI: 0.431 µM
SNB-19 CNS
  GI50: 0.303 µM
  TGI: 0.763 µM
SR leukemia
  GI50: 0.225 µM
  TGI: > 100 µM

## Nc1cc2c3c(cccc3c1)C(=O)N(CCN1CCCC1)C2=O
A498 renal
  GI50: 2.54 µM
  TGI: 7.89 µM
HOP-92 NSCLC
  GI50: 2.94 µM
  TGI: > 54.4 µM
KM12 colon
  GI50: 3.66 µM
  TGI: 51.2 µM
LOX IMVI melanoma
  GI50: 2.25 µM
  TGI: 13.4 µM
SF-268 CNS
  GI50: 4.62 µM
  TGI: 30.5 µM
SF-539 CNS
  GI50: 3.87 µM
  TGI: 18.2 µM
SK-MEL-2 melanoma
  GI50: 4.96 µM
  TGI: 19.2 µM
SK-MEL-28 melanoma
  GI50: 4.28 µM
  TGI: 18.2 µM
SNB-19 CNS
  GI50: 3.33 µM
  TGI: 29 µM
SR leukemia
  GI50: 0.979 µM
  TGI: > 22.4 µM

## CCCCNC(c1ccc(Cl)cc1)C(O)c1ccc(Cl)cc1 (stereo not given)
A498 renal
  GI50: 2.29 µM
  TGI: 5.57 µM
HOP-92 NSCLC
  GI50: 1.13 µM
  TGI: 5.16 µM
KM12 colon
  GI50: 2.04 µM
  TGI: 5.34 µM
LOX IMVI melanoma
  GI50: 1.39 µM
  TGI: 2.7 µM
SF-268 CNS
  GI50: 3.21 µM
  TGI: 16.3 µM
SF-539 CNS
  GI50: 1.83 µM
  TGI: 3.57 µM
SK-MEL-2 melanoma
  GI50: 1.81 µM
  TGI: 3.68 µM
SK-MEL-28 melanoma
  GI50: 2.06 µM
  TGI: 4.5 µM
SNB-19 CNS
  GI50: 2.09 µM
  TGI: 5.74 µM
SR leukemia
  GI50: 1.07 µM
  TGI: 3.75 µM

## COC1=CC(c2ccc[nH]2)=N/C1=C\c1[nH]c(C)c(C(=O)CCCCCCCCC(=O)O[C@H]2CC[C@H]3C4CCc5cc(O)ccc5C4CC[C@]23C)c1C (stereo not given in full)
A498 renal
  GI50: 1.28 µM
  TGI: > 43.8 µM
HOP-92 NSCLC
  GI50: 0.167 µM
  TGI: 1.43 µM
KM12 colon
  GI50: 0.379 µM
  TGI: > 50 µM
LOX IMVI melanoma
  GI50: 0.0764 µM
  TGI: 0.267 µM
SF-268 CNS
  GI50: 0.429 µM
  TGI: > 50 µM
SF-539 CNS
  GI50: 0.46 µM
  TGI: > 50 µM
SK-MEL-2 melanoma
  GI50: 0.247 µM
  TGI: 1.95 µM
SK-MEL-28 melanoma
  GI50: 0.841 µM
  TGI: > 50 µM
SNB-19 CNS
  GI50: 3.16 µM
  TGI: > 50 µM
SR leukemia
  GI50: 0.209 µM
  TGI: > 20.2 µM

## CC1(C)CC(C)(C)c2cc(NC(=S)Nc3ccc([N+](=O)[O-])cc3)ccc2S1
A498 renal
  GI50: 9.16 µM
  TGI: 19.1 µM
HOP-92 NSCLC
  GI50: 19.1 µM
  TGI: 36.5 µM
KM12 colon
  GI50: 10.9 µM
  TGI: 34.8 µM
LOX IMVI melanoma
  GI50: 12.4 µM
  TGI: 31.9 µM
SF-268 CNS
  GI50: 26.5 µM
  TGI: > 53.7 µM
SF-539 CNS
  GI50: 10.8 µM
  TGI: 22.7 µM
SK-MEL-2 melanoma
  GI50: 10.5 µM
  TGI: 23.1 µM
SK-MEL-28 melanoma
  GI50: 17.2 µM
  TGI: 68.5 µM
SNB-19 CNS
  GI50: 21 µM
  TGI: > 76.1 µM
SR leukemia
  GI50: 12.9 µM
  TGI: > 88.2 µM

## COc1cc(N2C(=O)[C@H](Cl)C2c2ccc(SC)cc2)cc(OC)c1OC (stereo not given in full)
HOP-92 NSCLC
  GI50: 0.214 µM
  TGI: > 100 µM
KM12 colon
  GI50: 0.0473 µM
  TGI: 20.3 µM
LOX IMVI melanoma
  GI50: 0.0635 µM
  TGI: > 100 µM
SF-268 CNS
  GI50: 0.0841 µM
  TGI: > 100 µM
SF-539 CNS
  GI50: 0.0307 µM
  TGI: 0.163 µM
SK-MEL-2 melanoma
  GI50: 0.3 µM
  TGI: > 100 µM
SNB-19 CNS
  GI50: 0.0965 µM
  TGI: > 100 µM
SR leukemia
  GI50: 0.0473 µM
  TGI: > 100 µM

## COC(=O)C1C=CCC2CCCCC21N1CCCC1 (stereo not given)
A498 renal
  TGI: > 100 µM
HOP-92 NSCLC
  TGI: > 100 µM
KM12 colon
  TGI: > 100 µM
LOX IMVI melanoma
  TGI: > 100 µM
SF-268 CNS
  TGI: > 100 µM
SF-539 CNS
  TGI: > 100 µM
SK-MEL-28 melanoma
  TGI: > 100 µM
SNB-19 CNS
  TGI: > 100 µM
SR leukemia
  TGI: > 100 µM

## N=C1CCCC1C(=S)SCCC(N)=O (stereo not given)
A498 renal
  TGI: > 100 µM
HOP-92 NSCLC
  TGI: > 100 µM
KM12 colon
  TGI: > 100 µM
SF-268 CNS
  TGI: > 100 µM
SF-539 CNS
  TGI: > 100 µM
SK-MEL-2 melanoma
  TGI: > 100 µM
SK-MEL-28 melanoma
  TGI: > 100 µM
SNB-19 CNS
  TGI: > 100 µM
SR leukemia
  TGI: > 100 µM

## CC1CCC2C(C)C(=O)OC2C2(C)C(=O)C=CC12 (stereo not given)
HOP-92 NSCLC
  TGI: > 10 µM
KM12 colon
  TGI: > 10 µM
LOX IMVI melanoma
  TGI: > 10 µM
SF-268 CNS
  TGI: > 10 µM
SF-539 CNS
  TGI: > 10 µM
SK-MEL-2 melanoma
  TGI: > 10 µM
SK-MEL-28 melanoma
  TGI: > 10 µM
SNB-19 CNS
  TGI: > 10 µM
SR leukemia
  TGI: > 10 µM

## CC(C)(C)C[C@H]1N[C@@H](C(=O)NC2CCC(O)CC2)[C@H](c2cccc(Cl)c2F)[C@@]12C(=O)Nc1cc(Cl)ccc12 (stereo not given in full)
A498 renal
  GI50: 1.11 µM
  TGI: 10.3 µM
HOP-92 NSCLC
  GI50: 3.28 µM
  TGI: 15 µM
KM12 colon
  GI50: 6.85 µM
  TGI: 22.1 µM
LOX IMVI melanoma
  GI50: 0.577 µM
  TGI: 18.1 µM
SF-268 CNS
  GI50: 12 µM
  TGI: 25.8 µM
SF-539 CNS
  GI50: 3.12 µM
  TGI: 11.5 µM
SK-MEL-2 melanoma
  GI50: 4.93 µM
  TGI: 19.7 µM
SK-MEL-28 melanoma
  GI50: 3.28 µM
  TGI: 11.7 µM
SNB-19 CNS
  GI50: 5.93 µM
  TGI: 21.3 µM
SR leukemia
  GI50: 0.189 µM
  TGI: 5.45 µM

## C=C1C(=O)O[C@@H]2/C=C(/C)[C@@H](OC(C)=O)C/C=C(\C)C(O)[C@@H](OC(=O)/C(C)=C\C)C12 (stereo not given in full)
A498 renal
  TGI: > 100 µM
HOP-92 NSCLC
  TGI: 50.3 µM
KM12 colon
  TGI: > 100 µM
LOX IMVI melanoma
  TGI: 27.7 µM
SF-268 CNS
  TGI: > 100 µM
SF-539 CNS
  TGI: > 100 µM
SK-MEL-2 melanoma
  TGI: 76.8 µM
SK-MEL-28 melanoma
  TGI: 32.1 µM
SNB-19 CNS
  TGI: > 100 µM
SR leukemia
  TGI: 55.6 µM

## CN(C)C(=S)/N=c1\ss/c(=N\C(=S)N(C)C)n1-c1cccc(Cl)c1
A498 renal
  TGI: > 100 µM
KM12 colon
  TGI: > 100 µM
LOX IMVI melanoma
  TGI: > 100 µM
SF-268 CNS
  TGI: > 100 µM
SF-539 CNS
  TGI: > 100 µM
SK-MEL-2 melanoma
  TGI: > 100 µM
SK-MEL-28 melanoma
  TGI: > 100 µM
SNB-19 CNS
  TGI: > 100 µM
SR leukemia
  TGI: > 100 µM

## COC(=O)C(C(=O)C(=O)Nc1c(C)cccc1C(C)(C)C)c1nc2ccc(Cl)cc2[nH]c1=O (stereo not given)
A498 renal
  TGI: > 100 µM
HOP-92 NSCLC
  TGI: > 100 µM
KM12 colon
  TGI: > 100 µM
LOX IMVI melanoma
  TGI: > 100 µM
SF-268 CNS
  TGI: > 100 µM
SF-539 CNS
  TGI: > 100 µM
SK-MEL-2 melanoma
  TGI: > 100 µM
SK-MEL-28 melanoma
  TGI: > 100 µM
SNB-19 CNS
  TGI: > 100 µM
SR leukemia
  TGI: > 100 µM

## O=c1[nH]c(C2CCCN2)nc2c1oc1ccc(Cl)cc12 (stereo not given)
A498 renal
  GI50: 1.77 µM
  TGI: 25 µM
HOP-92 NSCLC
  GI50: 12.4 µM
  TGI: > 91.1 µM
KM12 colon
  GI50: > 100 µM
  TGI: > 100 µM
LOX IMVI melanoma
  GI50: 68 µM
  TGI: > 100 µM
SF-268 CNS
  GI50: > 100 µM
  TGI: > 100 µM
SF-539 CNS
  GI50: 36.9 µM
  TGI: > 100 µM
SK-MEL-2 melanoma
  GI50: > 100 µM
  TGI: > 100 µM
SK-MEL-28 melanoma
  GI50: > 100 µM
  TGI: > 100 µM
SNB-19 CNS
  GI50: 68.1 µM
  TGI: > 100 µM
SR leukemia
  GI50: 61.1 µM
  TGI: > 100 µM

## [N-]=[N+]=CC(=O)CCC(N)C(=O)O (stereo not given)
A498 renal
  GI50: 7.72 µM
  TGI: > 250 µM
HOP-92 NSCLC
  TGI: 69.3 µM
KM12 colon
  GI50: 3.14 µM
  TGI: > 250 µM
LOX IMVI melanoma
  GI50: 0.793 µM
  TGI: 167 µM
SF-268 CNS
  GI50: 1.65 µM
  TGI: 190 µM
SF-539 CNS
  GI50: 6.31 µM
  TGI: 48.7 µM and > 250 µM
SK-MEL-2 melanoma
  GI50: 24.6 µM
  TGI: 245 µM
SK-MEL-28 melanoma
  GI50: 15.3 µM
  TGI: 202 µM
SNB-19 CNS
  GI50: 10.1 µM
  TGI: > 250 µM
SR leukemia
  TGI: > 231 µM
